From PMC12354831 (Cell Death Discovery, 2025)

Experiments:
U251-MG cells [1] = assay: CCK-8 IC50 in U251-MG cells expressing GLUT3 mutants vs WT; format: cell-based, human; details: GLUT3 Q159A vs GLUT3 WT
Method: (§1) The GBM cell line was seeded into a 96-well plate at a density of 5 × 10^3 cells per well and incubated at 37 °C in a humidified atmosphere containing 5% CO2 overnight. […] Following 24 h of drug treatment, 10 µL of CCK-8 reagent was added to each well, and the cells were incubated for an additional 1 h at 37 °C. The absorbance was then measured at 450 nm using a microplate reader.
(§2) In this study, the experimental groups were designated as Group A (cells treated with temozolomide (TMZ) or capecitabine (CAPE)), the control group as Group B (cells treated with DMSO), and the blank control group as Group C ([…]). The cell viability rate was calculated using the formula: (A-C)/(B-C) × 100%, where A, B, and C represent the absorbance values of Group A, Group B, and Group C, respectively.

U251-MG cells [2] = assay: CCK-8 IC50 determination in U251-MG cells with or without GLUT3 OE; format: cell-based, human; details: GLUT3 OE vs control, CCK-8, 24 h drug treatment
Method: as §1, §2

[3] = CC50 determination (CCK-8) in normal astrocyte cell line SVGp12; format: cell-based; details: human, SVGp12 normal astrocyte cells, SVGp12 normal astrocytes
Method: The human normal astrocyte cell line SVGp12 was seeded in a 96-well plate at a density of 5 × 10^3 cells per well and incubated overnight at 37 °C in a humidified atmosphere containing 5% CO2. […] After the treatment period, 10 μL of CCK-8 reagent was added to each well, followed by an additional incubation for 1 h under the same conditions. The absorbance at 450 nm was measured using a microplate reader. In this study, the experimental group treated with TMZ or CAPE was designated as group A, the control group treated with DMSO as group B, and the blank control group without cells as group C. The cell viability rate was calculated using the formula: (A-C)/(B-C) × 100%, where A, B, and C represent the absorbance values of group A, group B, and group C, respectively.

GLUT3 [4] = target: T1, GLUT3 (Homo sapiens, UniProt P11169); assay: Cellular uptake of TMZ and CAPE by LC-MS/MS, GLUT3 KD U343-MG cells; format: in vitro ADME; details: for extracellular drug level higher than controls: GLUT3-KD U343-MG cells, remaining extracellular drug after uptake; for reduction of drug uptake by GLUT3 KD: U343-MG cells, 200 μM drug, 37 °C, 15 min, intracellular level vs control
T1 construct: expressed in transfected cells
T1 sequence (P11169 1-496): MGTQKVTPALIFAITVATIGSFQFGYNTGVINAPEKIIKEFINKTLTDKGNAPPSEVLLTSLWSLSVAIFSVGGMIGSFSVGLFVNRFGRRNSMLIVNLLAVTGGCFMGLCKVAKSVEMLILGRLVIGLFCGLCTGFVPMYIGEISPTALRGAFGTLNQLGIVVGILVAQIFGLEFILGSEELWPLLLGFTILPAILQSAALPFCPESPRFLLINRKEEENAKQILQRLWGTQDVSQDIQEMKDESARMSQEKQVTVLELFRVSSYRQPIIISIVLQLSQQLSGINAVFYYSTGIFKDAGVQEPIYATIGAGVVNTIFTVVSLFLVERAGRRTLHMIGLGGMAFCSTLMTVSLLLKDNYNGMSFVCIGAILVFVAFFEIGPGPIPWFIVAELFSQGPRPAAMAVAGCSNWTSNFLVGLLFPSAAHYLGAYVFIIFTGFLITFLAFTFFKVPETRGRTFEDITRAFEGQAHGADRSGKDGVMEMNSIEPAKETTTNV
Method: (§3) A total of 6 × 10^6 cells were seeded into each well of a 6 cm Petri dish and cultured at 37 °C in a humidified atmosphere containing 5% CO2 for 8 h. The cells were then washed twice with PBS (137 mM NaCl, 2.7 mM KCl, 10 mM Na2HPO4, 1.8 mM KH2PO4, pH 7.4) and incubated in transport buffer (140 mM NaCl, 5 mM KCl, 2 mM MgCl2, 2 mM CaCl2, 30 mM Tris-HCl, pH 7.4) for 15 min at 37 °C. […] Cell supernatants were collected and stored at 4 °C for subsequent extraction. The harvested cells were washed three times with PBS and extracted with 500 µL of 80% methanol for 30 min at −80 °C. The cell lysate was then centrifuged at 14,000 × g for 5 min at 4 °C, followed by 2 min of sonication. The supernatant was transferred to a new centrifuge tube. For LC-MS/MS analysis, the cell supernatants and cell lysates were diluted at a specific ratio. A total of 100 µL of each sample was mixed with 100 µL of acetonitrile (or standard reagent) and 300 µL of internal standard solution (^2H3-TMZ 100 ng/mL and ^2H11-CAPE 20 ng/mL dissolved in acetonitrile). […] Quality control (QC) samples were prepared and analyzed alongside the experimental samples to monitor the stability and repeatability of the instrument. QC samples were inserted regularly and analyzed every 6–12 samples. Each experiment was repeated 5–6 times.
(§4) LC-MS/MS analyses were performed using a high-performance liquid chromatography (HPLC) system (Shimadzu, LC-20A) coupled to a […] (ABSciex, API4000 QTRAP). The samples were separated on a 2.1 × 100 mm ACQUITY Premier BEH C18 1.7 µm VanGuard™ FIT column (Waters, Ireland). The mobile phases consisted of: Mobile phase A (0.1% formic acid and 2.5 mM ammonium acetate in water) and Mobile phase B (0.1% formic acid and 2.5 mM ammonium acetate in acetonitrile). Gradient elution was employed, with the flow rates and gradient conditions detailed in Table S2.
(§5) The mass spectrometry conditions were as follows: Ion source: electrospray ionization (ESI); Detection mode: positive ion mode; Scanning method: multiple reaction monitoring (MRM); Spray voltage (IS): 5500 V; Ion source temperature (TEM): 555 °C; Gas curtain pressure (CUR): 25 psi; Collision activation dissociation (CAD): MEDIUM; Nebulizer gas pressure (GS1): 55 psi; Auxiliary gas pressure (GS2): 55 psi.

GLUT3 mutants = assay: TMZ/CAPE uptake by U251-MG cells stably expressing GLUT3 mutants vs WT GLUT3 (LC-MS/MS); format: in vitro ADME, human; details: U251-MG cells expressing GLUT3 mutants with reduced affinity vs WT GLUT3
Method: as §3, with “times. […]” for “times.”

U87-MG cells = assay: CCK-8 IC50 determination in U87-MG cells with or without GLUT3 KD; format: cell-based, human; details: GLUT3 KD vs control, CCK-8, 24 h drug treatment
Method: as §1, §2

GLUT3 [5] = target: T1, GLUT3; assay: Cellular uptake of TMZ and CAPE by LC-MS/MS, GLUT3 OE U251-MG cells; format: in vitro ADME; details: for decrease of extracellular drug concentration: GLUT3 OE U251-MG cells, remaining extracellular drug after uptake; for increase of drug uptake by GLUT3 OE: U251-MG cells, 200 μM drug, 37 °C, 15 min, intracellular level vs control
Method: as §3, §4, §5

Structure (SMILES) | fold increase in IC50 (U251-MG cells [1]) [fold] | reduction of IC50 in GLUT3 overexpressing cells compared to control cells (U251-MG cells [2]) [%] | CC50 at 24 h [3] [µM] | extracellular drug level higher than controls (GLUT3 [4]) [%] | reduction of drug uptake by GLUT3 KD (GLUT3 [4]) [%] | reduction in drug uptake (GLUT3 mutants) | fold increase of IC50 on GLUT3 knockdown (U87-MG cells) [fold] | decrease of extracellular drug concentration (GLUT3 [5]) [%] | increase of drug uptake by GLUT3 OE (GLUT3 [5])
CCCCCOC(=O)Nc1nc(=O)n([C@@H]2O[C@H](C)[C@@H](O)[C@H]2O)cc1F [CAPE, capecitabine] | 3.6 | 94.4 | 163 ± 31.8 | 12 | 65.5 | 75–95% | 56.5 | 5.4 | ~ 70%
Cn1nnc2c(C(N)=O)ncn2c1=O [TMZ] | 1.3 | 97.7 | 104 ± 21.1 | 3 | 54.3 | 60–70% | 10.6 | 7.7 | ~ 70%
